Laboratory results: patent US20250136722A1, “CYTOTOXICITY TARGETING CHIMERAS” (GLAXOSMITHKLINE INTELLECTUAL PROPERTY DEVELOPMENT LIMITED, priority 2021, published 2025)
Where “and” joins values, the source holds several entries; their conditions need not be identical. Identical values can stand only once.

What was measured:
[1] = target: T1, CHOK1 cells engineered to overexpress human CCR2 (Homo sapiens, UniProt P41597); assay: Antibody dependent cellular cytotoxicity (ADCC) reporter assay (Example 199); type: cell-based; details: with anti-cotinine antibody SEQ ID NO: 11/12; CHOK1-human CCR2 target cells, Jurkat FcγRIIIa NFAT-luciferase reporter cells; 12-18 hours; read-out: ADCC Reporter Assay pEC50 (converted)
T1 construct: expressed in transfected cells; host or cells: CHOK1 cells
In short: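 CHOK1-hCCR2 target cells are co-incubated for 12–18 h with Jurkat FcγRIIIa/NFAT-luciferase reporter cells, ARM compound (1 pM–10 μM) and anti-cotinine antibody with a DE-mutant human IgG1 Fc (0.01–200 μg/mL). Luminescence is expressed as signal:background against no-compound wells; EC50 comes from nonlinear fit and is reported as pEC50, averaged across runs.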

[2] = target: human alpha1 nicotinic acetylcholine (nACh) receptor (Homo sapiens, UniProt P02708+Q07001); assay: Nicotinic acetylcholine receptor antagonism assay, IONFlux automated patch clamp (Example 203); type: cell-based; details: for Emax at 100 µM: maximum percentage antagonism at maximum concentration tested 100 μM; for Emax at 100 µM / Emax at 10 µM: read-out: Maximum Response (%); for IC50: nAChR antagonism, ACh stimulated, patch clamp; for Emax at 10 µM: maximum percentage antagonism at maximum concentration tested 10 μM
Chain of human alpha1 nicotinic acetylcholine (nACh) receptor (P02708 21-457): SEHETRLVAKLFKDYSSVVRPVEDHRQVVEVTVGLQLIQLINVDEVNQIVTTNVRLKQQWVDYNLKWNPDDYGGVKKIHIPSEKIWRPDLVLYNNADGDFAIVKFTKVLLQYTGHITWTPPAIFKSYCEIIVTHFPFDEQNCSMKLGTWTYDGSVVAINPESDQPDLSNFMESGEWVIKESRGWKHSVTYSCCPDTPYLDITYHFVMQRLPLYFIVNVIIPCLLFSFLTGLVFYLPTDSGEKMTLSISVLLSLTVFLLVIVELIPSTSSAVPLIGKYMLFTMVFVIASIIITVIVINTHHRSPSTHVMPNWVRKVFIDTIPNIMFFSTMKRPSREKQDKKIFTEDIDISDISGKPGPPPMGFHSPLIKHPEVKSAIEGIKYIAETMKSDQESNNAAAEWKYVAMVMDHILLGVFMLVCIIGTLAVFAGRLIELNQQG
Chain of human alpha1 nicotinic acetylcholine (nACh) receptor (P11230 24-501 partner): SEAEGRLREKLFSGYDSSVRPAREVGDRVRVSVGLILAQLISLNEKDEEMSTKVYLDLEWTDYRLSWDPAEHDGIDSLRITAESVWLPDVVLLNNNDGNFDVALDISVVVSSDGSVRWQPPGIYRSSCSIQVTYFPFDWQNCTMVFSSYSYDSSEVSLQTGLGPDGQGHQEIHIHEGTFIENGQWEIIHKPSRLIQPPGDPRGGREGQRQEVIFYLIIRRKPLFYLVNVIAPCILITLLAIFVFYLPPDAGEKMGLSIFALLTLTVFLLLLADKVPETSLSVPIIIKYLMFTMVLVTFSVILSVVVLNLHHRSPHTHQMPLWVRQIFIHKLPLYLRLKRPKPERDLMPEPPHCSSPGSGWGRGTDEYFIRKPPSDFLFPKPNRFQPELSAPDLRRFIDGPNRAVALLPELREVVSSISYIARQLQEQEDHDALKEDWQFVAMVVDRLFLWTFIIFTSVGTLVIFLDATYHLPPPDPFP
Chain of human alpha1 nicotinic acetylcholine (nACh) receptor (Q07001 22-517): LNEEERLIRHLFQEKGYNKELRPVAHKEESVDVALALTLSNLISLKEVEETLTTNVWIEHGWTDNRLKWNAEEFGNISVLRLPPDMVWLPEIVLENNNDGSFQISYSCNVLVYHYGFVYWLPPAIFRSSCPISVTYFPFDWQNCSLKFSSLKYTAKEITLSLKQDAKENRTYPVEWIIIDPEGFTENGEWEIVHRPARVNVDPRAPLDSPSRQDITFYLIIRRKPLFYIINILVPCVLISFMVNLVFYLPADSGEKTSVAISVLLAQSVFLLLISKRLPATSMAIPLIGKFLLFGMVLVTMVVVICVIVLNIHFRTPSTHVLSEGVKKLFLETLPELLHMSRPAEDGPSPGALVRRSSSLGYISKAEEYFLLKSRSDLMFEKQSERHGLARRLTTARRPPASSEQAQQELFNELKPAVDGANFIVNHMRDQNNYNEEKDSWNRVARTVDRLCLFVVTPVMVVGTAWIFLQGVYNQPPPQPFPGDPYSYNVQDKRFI
Experimental: Cells expressing human alpha1 nicotinic acetylcholine (nACh) receptor (nAChR) were washed and dissociated using Trypsin containing buffer. Cells were then washed and seeded at a density of 3-5 million cells/mL and allowed to grow for 3 days. Then, 60-80 μL of cells were added to plates and incubated with dose response of an ARM compound of Formula (I) with a top concentration of either 10 μM or 100 μM. The receptor was then stimulated via addition of acetylcholine (ACh) and activation of the receptor was monitored via the IONFlux automated patch clamp system. IonFlux Data Analyzer software was utilized to perform leak subtraction and measure (min) peak current amplitude.
Data processing: (1) Current values recorded for vehicle only applications in individual traps/patterns were subtracted from corresponding current amplitude values for control, test article and control+test article. (2) Control response was calculated as % of the average response of the 3rd out of total 3 ACh (10 mM) applications alone. In rare situations, if the 3rd ACh response was obscured due to technical artifacts, the 2nd and/or 1 st ACh (10 mM) application was considered as control. The peak current amplitude generated in the presence of each test article concentration was then used to calculate the % inhibition as compared to control response (10 mM ACh alone). These estimates were further corrected for vehicle response and run down corrected by normalizing with time matched control responses (10 mM ACh alone). The corrected percentages were then fit with a non-linear function in GraphPad Prism 6 (or later versions) to determine the […].
Exclusion criteria: (i) any n's with poor recording quality, (ii) control current amplitude <500 pA or (iii) significant outliers, as determined by the Grubbs' test.
ARMs compounds of Formula (I) of the invention were tested for antagonism of the nAChR in the above assay in […] experimental runs and the results are shown in Table 7 below. Antagonistic activity of the compounds of Formula (I) of the invention is reported as an IC50 value (half maximal inhibitory concentration) and the maximum percentage antagonism observed at the highest concentration of compound of Formula (I) tested, as indicated in Table 7. For compounds tested in more than one experimental run, the IC50 value is reported as an average.

| SMILES | Emax at 100 µM [2] [%] | IC50 [2] [nM] | Emax at 10 µM [2] [%] | EC50 [1] |
| --- | --- | --- | --- | --- |
| CC(C)N(C)[C@@H]1CC[C@H](N2CC[C@H](Nc3ncnc4ccc(C(F)(F)F)cc34)C2=O)[C@H](NC(=O)[C@H]2CC[C@@H](NC(=O)CCOCCCNC(=O)CCCNC(=O)[C@H]3CC(=O)N(C)[C@@H]3c3cccnc3)CC2)C1 [Example 17, (2S,3S)-N-(4-((3-(3-(((1S,4s)-4-(((1R,2S,5R)-5-(Isopropyl(methyl)amino)-2-((S)-2-oxo-3-((6-(trifluoromethyl)quinazolin-4-yl)amino)pyrrolidin-1-yl)cyclohexyl)carbamoyl)cyclohexyl)amino)-3-oxopropoxy)propyl)amino)-4-oxobutyl)-1-methyl-5-oxo-2-(pyridin-3-yl)pyrrolidine-3-carboxamide] | 55.1 | ≥ 100000 |  | 0.338 nM and 0.656 nM |
| CC(C)N(C)[C@@H]1CC[C@H](N2CC[C@H](Nc3ncnc4ccc(C(F)(F)F)cc34)C2=O)[C@H](NC(=O)[C@H]2C[C@@H](NC(=O)CCOCCNC(=O)CCOCCNC(=O)[C@H]3CC(=O)N(C)[C@@H]3c3cccnc3)C2)C1 [Example 44, (2S,3S)-N-(2-(3-((2-(3-(((1S,3s)-3-(((1R,2S,5R)-5-(Isopropyl(methyl)amino)-2-((S)-2-oxo-3-((6-(trifluoromethyl)quinazolin-4-yl)amino)pyrrolidin-1-yl)cyclohexyl)carbamoyl)cyclobutyl)amino)-3-oxopropoxy)ethyl)amino)-3-oxopropoxy)ethyl)-1-methyl-5-oxo-2-(pyridin-3-yl)pyrrolidine-3-carboxamide] | 51.5 | ≥ 100000 |  | 0.897 nM |
| CC(C)N(C)[C@@H]1CC[C@H](N2CC[C@H](Nc3ncnc4ccc(C(F)(F)F)cc34)C2=O)[C@H](NC(=O)c2ccc(C3CCN(CCOCCOCCNC(=O)[C@H]4CC(=O)N(C)[C@@H]4c4cccnc4)CC3)cn2)C1 [Example 94] |  | 4660 | 67.1 | 10 nM |
| CC(C)N(C)[C@@H]1CC[C@H](N2CC[C@H](Nc3ncnc4ccc(C(F)(F)F)cc34)C2=O)[C@H](NC(=O)[C@H]2CC[C@@H](NC(=O)CCOCCCOCCCNC(=O)[C@H]3CC(=O)N(C)[C@@H]3c3cccnc3)CC2)C1 [Example 197, (2S,3S)-N-(3-(3-(3-(((1S,4s)-4-(((1R,2S,5R)-5-(Isopropyl(methyl)amino)-2-((S)-2-oxo-3-((6-(trifluoromethyl)quinazolin-4-yl)amino)pyrrolidin-1-yl)cyclohexyl)carbamoyl)cyclohexyl)amino)-3-oxopropoxy)propoxy)propyl)-1-methyl-5-oxo-2-(pyridin-3-yl)pyrrolidine-3-carboxamide] |  |  |  | 0.251 nM |
| CC(C)N(C)[C@@H]1CC[C@H](N2CC[C@H](Nc3ncnc4ccc(C(F)(F)F)cc34)C2=O)[C@H](NC(=O)[C@H]2CC[C@H](N3CCN(CCOCCOCCNC(=O)[C@H]4CC(=O)N(C)[C@@H]4c4cccnc4)CC3)CC2)C1 [compound 190] |  |  |  | 2.51 nM |
| CC(C)N(C)[C@@H]1CC[C@H](N2CC[C@H](Nc3ncnc4ccc(C(F)(F)F)cc34)C2=O)[C@H](NC(=O)CCCCCCCCNCCCCCCCCCCNC(=O)[C@H]2CC(=O)N(C)[C@@H]2c2cccnc2)C1 [compound 196] |  |  |  | 0.251 nM |

Continued, in another order:

| Emax at 100 µM [2] [%] | IC50 [2] [nM] | Emax at 10 µM [2] [%] | SMILES | EC50 [1] |
| --- | --- | --- | --- | --- |
| 73.1 | 47200 |  | CC(C)N(C)[C@@H]1CC[C@H](N2CC[C@H](Nc3ncnc4ccc(C(F)(F)F)cc34)C2=O)[C@H](NC(=O)[C@H]2C[C@H](NC(=O)CCCO[C@H]3CC[C@H](OCCNC(=O)[C@H]4CC(=O)N(C)[C@@H]4c4cccnc4)CC3)C2)C1 [Example 8] | 0.631 nM |
| 53.9 | 82000 |  | CC(C)N(C)[C@@H]1CC[C@H](N2CC[C@H](Nc3ncnc4ccc(C(F)(F)F)cc34)C2=O)[C@H](NC(=O)[C@H]2C[C@@H](NC(=O)CCCO[C@H]3CC[C@H](OCCNC(=O)[C@H]4CC(=O)N(C)[C@@H]4c4cccnc4)CC3)C2)C1 [Example 9] | 25.1 nM |
| 53.8 | 93700 |  | CC(C)N(C)[C@@H]1CC[C@H](N2CC[C@H](Nc3ncnc4ccc(C(F)(F)F)cc34)C2=O)[C@H](NC(=O)[C@H]2C[C@H](NC(=O)CCOCCOCCOCCNC(=O)[C@H]3CC(=O)N(C)[C@@H]3c3cccnc3)C2)C1 [Example 27] | 7.28 nM |
|  | > 10000 | 16.8 | CC(C)N(C)[C@@H]1CC[C@H](N2CC[C@H](Nc3ncnc4ccc(C(F)(F)F)cc34)C2=O)[C@H](NC(=O)c2ccc(N3CCC(C(=O)NCCOCCOCCNC(=O)[C@H]4CC(=O)N(C)[C@@H]4c4cccnc4)CC3)cc2)C1 [Example 130, 1-(4-(((1R,2S,5R)-5-(Isopropyl(methyl)amino)-2-((S)-2-oxo-3-((6-(trifluoromethyl)quinazolin-4-yl)amino)pyrrolidin-1-yl)cyclohexyl)carbamoyl)phenyl)-N-(2-(2-(2-((2S,3S)-1-methyl-5-oxo-2-(pyridin-3-yl)pyrrolidine-3-carboxamido)ethoxy)ethoxy)ethyl)piperidine-4-carboxamide] | 3.98 nM |
|  | > 10000 | 18.2 | CC(C)N(C)[C@@H]1CC[C@H](N2CC[C@H](Nc3ncnc4ccc(C(F)(F)F)cc34)C2=O)[C@H](NC(=O)[C@H]2CC[C@H](c3ccc(C(=O)NCCOCCOCCNC(=O)[C@H]4CC(=O)N(C)[C@@H]4c4cccnc4)cc3)CC2)C1 [Example 140] | 3.16 nM |
|  | > 10000 | 13.1 | CC(C)N(C)[C@@H]1CC[C@H](N2CC[C@H](Nc3ncnc4ccc(C(F)(F)F)cc34)C2=O)[C@H](NC(=O)C2CCN(c3ccc(C(=O)NCCOCCOCCNC(=O)[C@H]4CC(=O)N(C)[C@@H]4c4cccnc4)cc3)CC2)C1 [Example 142] | 0.501 nM |
| 53 | 74300 |  | CC(C)N(C)[C@@H]1CC[C@H](N2CC[C@H](Nc3ncnc4ccc(C(F)(F)F)cc34)C2=O)[C@H](NC(=O)CCOCCOCCO[C@H]2CC[C@H](OCCNC(=O)[C@H]3CC(=O)N(C)[C@@H]3c3cccnc3)CC2)C1 [Example 192, (2S,3S)-N-(2-(((1R,4S)-4-(2-(2-(3-(((1R,2S,5R)-5-(Isopropyl(methyl)amino)-2-((S)-2-oxo-3-((6-(trifluoromethyl)quinazolin-4-yl)amino)pyrrolidin-1-yl)cyclohexyl)amino)-3-oxopropoxy)ethoxy)ethoxy)cyclohexyl)oxy)ethyl)-1-methyl-5-oxo-2-(pyridin-3-yl)pyrrolidine-3-carboxamide] |  |
|  | 6390 | 69.2 | CC(C)N(C)[C@@H]1CC[C@H](N2CC[C@H](Nc3ncnc4ccc(C(F)(F)F)cc34)C2=O)[C@H](NC(=O)CCOCCN2CCC3(CCC(C(=O)NCCNC(=O)[C@H]4CC(=O)N(C)[C@@H]4c4cccnc4)CC3)CC2)C1 [compound 184] | 0.398 nM |
